{"source": "patent US7414154B2", "about": "“Polyamine compounds and compositions for use in conjunction with cancer therapy” (Wisconsin Alumni Research Foundation, priority 2002, dated 2008)", "key": {"[1]": {"tested_on": "23SK skin cells", "test": "cell cycle distribution by flow cytometry", "format": "cell-based, human", "details": "23SK cells", "from_the_text": "FIGS. 5A-5D are cell histograms showing the results from flow cytometry analysis of chemoprotective polyamine-treated 23SK skin cells.\nIn FIG. 5, cell histograms showing the results from flow cytometry analysis of chemoprotective polyamine-treated 23SK skin cells are shown. […] The transient nature of the cell cycle block induced by chemoprotective polyamines is believed to be an important aspect of their efficacy, i.e., their ability to block cell cycle progression in stem cells during the course of chemo- or radiotherapy, and the resumption of normal stem cell division after a given cancer therapy course has been completed."}, "[2]": {"tested_on": "p21 protein in 23SK human skin cells", "test": "p21 induction by western analysis", "format": "cell-based", "details": "30 hr exposure", "protocol": "FIGS. 3A and 3B illustrate the level of induced p21 protein seen in diploid human fibroblasts after a 30 hr exposure to each of the indicated chemoprotective polyamines. […] In these experiments, the 23SK human skin cells were exposed for 30 hr to an “IC80” dose of each of the indicated chemoprotective polyamines and then lysed. Cell extracts were then prepared in order to measure p21 levels by western analysis (FIG. 3A).\nFIG. 3 illustrates that chemoprotective polyamines are able to induce expression of the negative cell cycle regulatory protein, p21, after exposing the human skin cells to the polyamine molecules. […] In these experiments, the 23SK human skin cells were exposed for 30 hr to an “IC80” dose of each of the indicated chemoprotective polyamines and then lysed. Cell extracts were then prepared in order to measure p21 levels by western analysis (FIG. 3A). Although the ability of modified polyamines to induce p21 is known in the literature (Kramer, D. et al., Cancer Res. 59:1278-1286, 1999), it is a novel aspect of this invention that those chemoprotective polyamines with longer aliphatic “arms” were better able to induce expression of p21 as shown in FIG. 4."}}, "data": [{"smiles": "CCNCCCCNCCCCNCCCCNCC=C(CS)CNCCCCNCCCCNCCCCNCC", "note": "[PrC-116]", "values": [{"measurement": "Cell Cycle Distribution At IC80 Dose (%) G1", "setting": "[1]", "value": 66, "unit": "%"}, {"measurement": "Cell Cycle Distribution At IC80 Dose (%) G2/M", "setting": "[1]", "value": 23, "unit": "%"}, {"measurement": "Cell Cycle Distribution At IC80 Dose (%) S", "setting": "[1]", "value": 11, "unit": "%"}]}, {"smiles": "CCNCCCCNCCCCNCCCCNCCCCNCC=C(CS)CNCCCCNCCCCNCCCCNCCCCNCC", "note": "[PrC-117]", "values": [{"measurement": "p21 fold-induction at IC80 Dose", "setting": "[2]", "value": "~3.0", "unit": "fold"}, {"measurement": "Cell Cycle Distribution At IC80 Dose (%) G1", "setting": "[1]", "value": 86, "unit": "%"}, {"measurement": "Cell Cycle Distribution At IC80 Dose (%) G2/M", "setting": "[1]", "value": 3, "unit": "%"}, {"measurement": "Cell Cycle Distribution At IC80 Dose (%) S", "setting": "[1]", "value": 11, "unit": "%"}]}, {"smiles": "CCNCCCCNCCCCNCCCCNCCCCNCC=C(CNCCCCNCCCCNCCCCNCCCCNCC)CN(C)C", "note": "[PrC-121]", "values": [{"measurement": "Cell Cycle Distribution At IC80 Dose (%) G1", "setting": "[1]", "value": 76, "unit": "%"}, {"measurement": "Cell Cycle Distribution At IC80 Dose (%) G2/M", "setting": "[1]", "value": 20, "unit": "%"}, {"measurement": "Cell Cycle Distribution At IC80 Dose (%) S", "setting": "[1]", "value": 4, "unit": "%"}]}]}
